This is an account of results in patent US20250313535A1, “ALPHA 4 BETA 7 INTEGRIN MODULATORS AND USES THEREOF” (DICE MOLECULES SV, INC., priority 2022, published 2025).

A value given as a limit tells only on which side of the number the result lay.

Assay [1] concerns the target T1, α4β7 integrin (Homo sapiens (Human), UniProt P13612+P26010). Briefly: Integrin Adhesion Assay: Protocol 4 (MAdCAM-coated plate, RPMI-8866 cells with stable LOF mutation of the ITGB1 gene). In kind it is cell-based. To be noted: RPMI-8866 cells with stable LOF mutation of the ITGB1 gene; read-out: Mean IC50 α4β7 KO^a. The procedure, abridged:
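RPMI-8866 cells with CRISPR/Cas9 knockout of ITGB1 (2×10^6/mL) were added to MAdCAM-coated wells with compound (1% DMSO) in HEPES/NaCl buffer with 1 mM MnCl2, 0.1 mM CaCl2 and 1% BSA, then incubated 1 h at 37 °C. After four washes, adherent cells were quantified by CellTiter-Glo luminescence. Percent inhibition versus DMSO and control compound was fitted to 4-parameter curves.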

Assay [2] has as its target T1, α4β7 integrin. Briefly: Integrin Adhesion Assay: Protocol 1 (MAdCAM-coated plate, RPMI-8866 cells, CellTiter GLO readout). In kind it is cell-based. The procedure, abridged: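 RPMI-8866 cells (2×10^6 per mL) added with compounds (1% DMSO) to MAdCAM-coated wells blocked in HEPES/NaCl buffer with 1 mM MnCl2, 0.1 mM CaCl2, 1% BSA; 1 h at 37° C, 5% CO2. After four washes, bound cells read by CellTiter GLO luminescence; % inhibition vs DMSO and control wells, 4-parameter fit.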

T1 sequence (P13612 34-1032): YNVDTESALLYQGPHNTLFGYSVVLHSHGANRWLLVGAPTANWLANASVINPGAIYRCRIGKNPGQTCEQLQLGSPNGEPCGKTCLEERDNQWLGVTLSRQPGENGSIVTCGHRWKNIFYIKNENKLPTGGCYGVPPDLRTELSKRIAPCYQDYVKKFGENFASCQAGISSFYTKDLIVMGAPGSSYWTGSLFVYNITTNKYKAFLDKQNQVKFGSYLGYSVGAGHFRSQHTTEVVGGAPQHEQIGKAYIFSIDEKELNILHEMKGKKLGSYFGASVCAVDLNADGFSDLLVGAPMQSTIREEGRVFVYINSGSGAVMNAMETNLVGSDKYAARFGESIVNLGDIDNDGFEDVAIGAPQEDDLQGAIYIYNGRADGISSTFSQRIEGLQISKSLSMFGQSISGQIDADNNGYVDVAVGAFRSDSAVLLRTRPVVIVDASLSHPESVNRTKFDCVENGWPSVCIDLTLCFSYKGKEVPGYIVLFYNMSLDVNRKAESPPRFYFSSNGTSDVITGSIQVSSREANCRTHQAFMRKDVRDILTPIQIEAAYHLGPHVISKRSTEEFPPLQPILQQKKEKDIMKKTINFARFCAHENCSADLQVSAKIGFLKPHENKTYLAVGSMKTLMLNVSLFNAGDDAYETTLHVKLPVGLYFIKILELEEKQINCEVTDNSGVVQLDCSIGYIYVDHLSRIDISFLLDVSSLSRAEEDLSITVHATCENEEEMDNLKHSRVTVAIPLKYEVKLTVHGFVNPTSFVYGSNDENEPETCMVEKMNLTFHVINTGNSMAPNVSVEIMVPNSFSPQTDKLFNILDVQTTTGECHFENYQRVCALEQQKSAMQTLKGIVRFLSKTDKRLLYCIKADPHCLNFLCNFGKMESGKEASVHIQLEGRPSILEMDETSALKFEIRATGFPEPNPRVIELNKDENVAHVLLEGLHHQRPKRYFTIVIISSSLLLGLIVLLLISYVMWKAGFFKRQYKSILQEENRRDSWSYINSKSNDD
T1 sequence (P26010 20-798): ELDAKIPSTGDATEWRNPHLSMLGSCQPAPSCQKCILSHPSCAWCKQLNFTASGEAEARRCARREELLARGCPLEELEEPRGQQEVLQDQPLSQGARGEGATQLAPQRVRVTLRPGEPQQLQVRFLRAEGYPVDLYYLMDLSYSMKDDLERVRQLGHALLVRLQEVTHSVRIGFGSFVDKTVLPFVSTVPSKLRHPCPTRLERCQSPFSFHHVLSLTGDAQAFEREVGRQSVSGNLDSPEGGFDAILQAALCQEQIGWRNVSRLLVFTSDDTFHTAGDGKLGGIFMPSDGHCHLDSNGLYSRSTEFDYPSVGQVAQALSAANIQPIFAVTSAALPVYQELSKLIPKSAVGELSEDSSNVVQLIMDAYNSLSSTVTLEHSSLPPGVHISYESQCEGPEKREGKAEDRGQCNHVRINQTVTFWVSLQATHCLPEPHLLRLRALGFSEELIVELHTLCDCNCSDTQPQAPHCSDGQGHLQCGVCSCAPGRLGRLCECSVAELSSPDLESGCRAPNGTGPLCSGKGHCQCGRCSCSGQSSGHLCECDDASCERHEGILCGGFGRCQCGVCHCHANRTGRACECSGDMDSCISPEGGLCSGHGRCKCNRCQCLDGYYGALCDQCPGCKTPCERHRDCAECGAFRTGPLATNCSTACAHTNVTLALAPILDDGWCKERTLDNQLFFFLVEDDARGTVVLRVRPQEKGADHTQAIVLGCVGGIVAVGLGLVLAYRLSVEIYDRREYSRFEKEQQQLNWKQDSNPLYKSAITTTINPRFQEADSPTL

Consider `CN(C)c1ccc2c(c1)c(C(F)(F)F)c(-c1cccc3c(C[C@H](NC(=O)[C@]4(C)CC[C@H](N5CCOC[C@@H]5C(F)(F)F)CC4)C(=O)O)cccc13)c(=O)n2C` (single isomer, unassigned) [Compound 410], for which the IC50 in assay [1] and in assay [2] was 100 to 1000 nM each time.
Take `CC[C@@](Cc1cccs1)(C(=O)N[C@@H](Cc1cccc2c(-c3c(C(F)(F)F)ccn(C)c3=O)nccc12)C(=O)O)c1ccccc1` [Compound 291]: the IC50 in assay [1] and in assay [2] was 100 to 1000 nM in each case.
`CC[C@@](Cc1cccs1)(C(=O)N[C@@H](Cc1cccc2c(-n3c(=O)ccn(C)c3=O)cccc12)C(=O)O)c1ccccc1` [Compound 292]: the concentration for half-maximal inhibition (IC50) in assay [1] and in assay [2] was 100 to 1000 nM throughout.
As to `Cc1cncc(C)c1-c1cc(F)c(C(=O)N[C@@H](Cc2cccc3c(-c4c(C(F)(F)F)c5ccccc5n(C)c4=O)cccc23)C(=O)O)c(F)c1` [Compound 305], the IC50 (usually the concentration that gives 50% inhibition) in assay [1] is over 1000 nM; in assay [2], 100 to 1000 nM.
For `Cc1n[nH]c(C(F)(F)F)c1-c1cc(F)c(C(=O)N[C@@H](Cc2cccc3c(-c4c(C(F)(F)F)c5ccccc5n(C)c4=O)cccc23)C(=O)O)c(F)c1` [Compound 310] the same measures were 100 to 1000 nM and 100 to 1000 nM.
For `Cn1c(=O)c(-c2cccc3c(C[C@H](NC(=O)c4c(F)ccc(-c5ccncc5)c4F)C(=O)O)cccc23)c(C(F)(F)F)c2ccccc21` [Compound 311] the same measures were 100 to 1000 nM and 100 to 1000 nM.
For `Cn1c(C(=O)N[C@@H](Cc2cccc3c(-c4c(C(F)(F)F)c5ccccc5n(C)c4=O)cccc23)C(=O)O)cnc1C1CCOCC1` [Compound 328] the same measures were 100 to 1000 nM and 100 to 1000 nM.
For `Cn1c(=O)c(-c2cccc3c(C[C@H](NC(=O)c4c(F)cc(N5CCOc6ccccc65)cc4F)C(=O)O)cccc23)c(C(F)(F)F)c2ccccc21` [Compound 332], the IC50 in assay [1] and in assay [2] was 100 to 1000 nM each time.
Turning to `CN(C)CC1CN(c2cc(F)c(C(=O)N[C@@H](Cc3cccc4c(-c5c(C(F)(F)F)c6ccccc6n(C)c5=O)cccc34)C(=O)O)c(F)c2)CCO1` (stereo partly shown) [Compound 335], the IC50 in assay [1] and in assay [2] was 100 to 1000 nM each time.
As for `Cn1c(=O)c(-c2cccc3c(C[C@H](NC(=O)c4c(F)cc(N5CCOC[C@@H]5c5ccccc5)cc4F)C(=O)O)cccc23)c(C(F)(F)F)c2ccccc21` [Compound 336], the half-inhibitory concentration (IC50) in assay [1] and in assay [2] was 100 to 1000 nM in each case.
With `Cn1c(=O)c(-c2cccc3c(C[C@H](NC(=O)c4c(F)cc(N5CCOC(CN6CCCC6)C5)cc4F)C(=O)O)cccc23)c(C(F)(F)F)c2ccccc21` (stereo partly shown) [Compound 339], the IC50 in assay [1] and in assay [2] was 100 to 1000 nM throughout.
Turning to `Cn1c(=O)c(-c2cccc3c(C[C@H](NC(=O)c4c(F)cc(N5CC(F)(F)OC(F)(F)C5)cc4F)C(=O)O)cccc23)c(C(F)(F)F)c2ccccc21` [Compound 341], the half-maximal inhibitory concentration (IC50) in assay [1] and in assay [2] was 100 to 1000 nM each time.
For `Cn1c(=O)c(-c2cccc3c(C[C@H](NC(=O)c4c(F)cc(C5CCNCC5)cc4F)C(=O)O)cccc23)c(C(F)(F)F)c2ccccc21` [Compound 365], the IC50 in assay [1] and in assay [2] was 100 to 1000 nM in each case.
As for `Cn1c(=O)c(-c2cccc3c(C[C@H](NC(=O)c4c(F)cc(C5CCNC5)cc4F)C(=O)O)cccc23)c(C(F)(F)F)c2ccccc21` (stereo partly shown) [Compound 366], the IC50 in assay [1] and in assay [2] was 100 to 1000 nM throughout.
For `CN(C)CCc1cc(F)c(C(=O)N[C@@H](Cc2cccc3c(-c4c(C(F)(F)F)c5ccccc5n(C)c4=O)cccc23)C(=O)O)c(F)c1` [Compound 367], the IC50 in assay [1] and in assay [2] was 100 to 1000 nM in each case.
As to `COCCc1cc(F)c(C(=O)N[C@@H](Cc2cccc3c(-c4c(C(F)(F)F)c5ccccc5n(C)c4=O)cccc23)C(=O)O)c(F)c1` [Compound 368], the IC50 in assay [1] and in assay [2] was 100 to 1000 nM in each case.
Turning to `Cn1c(=O)c(-c2cccc3c(C[C@H](NC(=O)c4c(F)cc(CCN5CC(F)C5)cc4F)C(=O)O)cccc23)c(C(F)(F)F)c2ccccc21` [Compound 371], the IC50 in assay [1] and in assay [2] was 100 to 1000 nM each time.
For the compound `CN1CCC(c2cc(F)c(C(=O)N[C@@H](Cc3cccc4c(-c5c(C(F)(F)F)c6ccccc6n(C)c5=O)cccc34)C(=O)O)c(F)c2)C1` (stereo partly shown) [Compound 372], the IC50 in assay [1] and in assay [2] was 100 to 1000 nM in each case.
As to `Cn1c(=O)c(-c2cccc3c(C[C@H](NC(=O)c4c(F)cc(C5CCCOC5)cc4F)C(=O)O)cccc23)c(C(F)(F)F)c2ccccc21` (stereo partly shown) [Compound 374], the IC50 in assay [1] and in assay [2] was 100 to 1000 nM each time.
Take `Cn1c(=O)c(-c2cccc3c(C[C@H](NC(=O)c4c(F)ccc(C5CCC(F)(F)CC5)c4F)C(=O)O)cccc23)c(C(F)(F)F)c2ccccc21` [Compound 382]: the concentration for half-maximal inhibition (IC50) in assay [1] and in assay [2] was 100 to 1000 nM each time.
In the case of `Cn1c(=O)c(-c2cccc3c(C[C@H](NC(=O)c4c(F)cc(NC5(C(F)F)CC5)cc4F)C(=O)O)cccc23)c(C(F)(F)F)c2ccccc21` [Compound 387], the concentration for half-maximal inhibition (IC50) in assay [1] and in assay [2] was 100 to 1000 nM throughout.
Consider `Cn1c(=O)c(-c2cccc3c(C[C@H](NC(=O)c4c(F)cc(N5CC(C(F)(F)F)C5)cc4F)C(=O)O)cccc23)c(C(F)(F)F)c2ccccc21` [Compound 388], for which the half-inhibitory concentration (IC50) in assay [1] and in assay [2] was 100 to 1000 nM each time.
With `Cn1c(=O)c(-c2cccc3c(C[C@H](NC(=O)c4c(F)cc(N5CC6C(C5)C6(F)F)cc4F)C(=O)O)cccc23)c(C(F)(F)F)c2ccccc21` (stereo partly shown) [Compound 389], the IC50 in assay [1] and in assay [2] was 100 to 1000 nM each time.
For `Cn1c(=O)c(-c2cccc3c(C[C@H](NC(=O)C45CC(C(F)F)(C4)C5)C(=O)O)cccc23)c(C(F)(F)F)c2ccccc21` [Compound 390], the half-maximal inhibitory concentration (IC50) in assay [1] and in assay [2] was 100 to 1000 nM in each case.
With `Cn1c(=O)c(-c2cccc3c(C[C@H](NC(=O)[C@]4(C)CC[C@@H](N5CC(F)(F)C5)CC4)C(=O)O)cccc23)c(C(F)(F)F)c2ccccc21` [Compound 399], the IC50 in assay [1] was 10 to 100 nM; in assay [2], 100 to 1000 nM.
Taken in the same sequence, the figures for `Cn1c(=O)c(-c2cccc3c(C[C@H](NC(=O)[C@]4(C)CC[C@H](N5CC(F)(F)C5)CC4)C(=O)O)cccc23)c(C(F)(F)F)c2ccccc21` [Compound 400] were 100 to 1000 nM and 100 to 1000 nM.
For `Cn1c(=O)c(-c2cccc3c(C[C@H](NC(=O)[C@]4(C)CC[C@@H](N5CCS(=O)(=O)CC5)CC4)C(=O)O)cccc23)c(C(F)(F)F)c2ccccc21` [Compound 404] the same measures were 100 to 1000 nM and 100 to 1000 nM.
Taken in the same sequence, the figures for `CN(C)c1ccc2c(c1)c(C(F)(F)F)c(-c1cccc3c(C[C@H](NC(=O)[C@]4(C)CC[C@@H](N5CCOC[C@@H]5C(F)(F)F)CC4)C(=O)O)cccc13)c(=O)n2C` [Compound 409] were 100 to 1000 nM and 100 to 1000 nM.
As for `Cn1c(=O)c(-c2cccc3c(C[C@H](NC(=O)c4c(F)cc([C@H]5C[C@@H](N(C)C)C5)cc4F)C(=O)O)cccc23)c(C(F)(F)F)c2ccccc21` [Compound 416], the IC50 in assay [1] and in assay [2] was 100 to 1000 nM throughout.
As to `Cn1c(=O)c(-c2cccc3c(C[C@H](NC(=O)[C@]4(C(F)(F)F)CC[C@H](N5CCOC[C@@H]5C(F)(F)F)CC4)C(=O)O)cccc23)c(C(F)(F)F)c2ccccc21` [Compound 423], the IC50 in assay [1] and in assay [2] was 100 to 1000 nM in each case.
Consider `CN(C)Cc1cccc2c(-c3cccc4c(C[C@H](NC(=O)[C@]5(C)CC[C@H](N6CCC(F)(F)CC6)CC5)C(=O)O)cccc34)nccc12` [Compound 425], for which the IC50 in assay [1] and in assay [2] was 100 to 1000 nM throughout.
For the compound `Cn1c(=O)c(-c2cccc3c(C[C@H](NC(=O)c4c(F)cc(N5CC6(COC6)C5)cc4F)C(=O)O)cccc23)c(C(F)(F)F)c2ccccc21` [Compound 426], the half-inhibitory concentration (IC50) in assay [1] and in assay [2] was 100 to 1000 nM each time.
Consider `Cn1ccc(C(F)(F)F)c(-c2cccc3c(C[C@H](NC(=O)c4c(F)cc(N5CCOC[C@H]5c5ccccc5)cc4F)C(=O)O)cccc23)c1=O` [Compound 438], for which the concentration for half-maximal inhibition (IC50) in assay [1] was 10 to 100 nM; in assay [2], 100 to 1000 nM.
Taken in the same sequence, the figures for `Cn1ccc(C(F)(F)F)c(-c2cccc3c(C[C@H](NC(=O)c4c(F)cc(N5CCOCC5c5ccc(C(F)(F)F)cc5)cc4F)C(=O)O)cccc23)c1=O` (stereo partly shown) [Compound 442] were 100 to 1000 nM and 100 to 1000 nM.
Take `Cn1c(=O)c(-c2cccc3c(C[C@H](NC(=O)c4c(F)cccc4C(F)(F)F)C(=O)O)cccc23)c(C(F)(F)F)c2ccccc21` [Compound 443]: the figures for the 50% inhibitory concentration (IC50) in assay [1] and in assay [2] were over 1000 nM and 100 to 1000 nM, respectively.
For `Cn1c(=O)c(-c2cccc3c(C[C@H](NC(=O)C45CC(NCC(F)(F)F)(C4)C5)C(=O)O)cccc23)c(C(F)(F)F)c2ccccc21` [Compound 447] the same measures were 100 to 1000 nM and 100 to 1000 nM.
Take `Cn1c(=O)c(-c2cccc3c(C[C@H](NC(=O)C45CC(N6CCOCC6)(C4)C5)C(=O)O)cccc23)c(C(F)(F)F)c2ccccc21` [Compound 459]: the IC50 in assay [1] and in assay [2] was 100 to 1000 nM throughout.
With `Cn1c(=O)c(-c2cccc3c(C[C@H](NC(=O)c4c(F)ccc(C(F)(F)F)c4F)C(=O)O)cccc23)c(C(F)(F)F)c2ccccc21` [Compound 461], the IC50 in assay [1] and in assay [2] was 100 to 1000 nM in each case.
